# Experiments:
# [1] = system: Balb/c mice; experiment: Light/dark box test in mice (anxiolytic effect); format: in vivo; conditions: for anxiolytic effect in the light/dark box test: 30 mg/kg, oral administration; for minimal effective dose: Mus musculus, 1 h, minimum dose significantly prolonging time spent in the light box vs vehicle, oral, one hour prior to test
# Procedure: The light/dark box test in mice was carried out according to a modified method of Belzung C., Misslin R., Vogel E. et al. (Reference; Behavioural effects of the benzodiazepine receptor partial agonist RO16-6028 in mice, Psychopharmacology, 97, 388-391, 1989). The test apparatus used was a light/dark box comprising a covered black acrylic box (dark box; 15×10×20 cm), an uncovered white acrylic box (light box; 15×20×20 cm) and a black acrylic tunnel (10×7×4.5 cm) which connects dark box and light box and enables a mouse to freely move back and forth between the dark box and light box. In this test apparatus, however, a transparent acrylic polymer was used for the front side (20×20 cm) and back side (20×20 cm) of the light box to allow observation of the behavior. After setting illumination so that the light intensity of the floor of the light box was 150 Lux, 5-week-old male Balb/c mice (purchased from Nihon Charles River) were introduced into the dark box at the beginning of the test. For the test, the tested compound was suspended in 5% dimethylsulfoxide, 5% Cremopor EL and 90% physiological saline and orally administered to the test animals one hour prior to the start of the test.
# The time spent in the light box was measured as an index of the anxiolytic effect, with “spend in the light box” defined as the state in which all limbs of the mice were on the floor of the light box. […] The statistical significance between the vehicle-treated group and the test compound-treated groups was analyzed by one way analysis of variance followed by Dunnett multiple comparison when multiple doses were set for the same test, and by the Mann-Whitney U test when only one dose was set.
# [2] = molecular target: T1, human CRFR1 (Homo sapiens, UniProt P34998); experiment: CRFR1 binding test (SPA competition with 125I-CRF, membrane fraction of CRFR1-expressing HEK293 cells); conditions: 100 pM 125I-CRF, room temperature, read-out: CRF1 receptor binding capacity IC50
# T1 construct: The full-length CRFR1 gene was obtained by PCR using human brain cDNA library; expressed in transfected cells; pcDNA3.1 expression vector; membrane fraction used
# T1 sequence (P34998 24-415): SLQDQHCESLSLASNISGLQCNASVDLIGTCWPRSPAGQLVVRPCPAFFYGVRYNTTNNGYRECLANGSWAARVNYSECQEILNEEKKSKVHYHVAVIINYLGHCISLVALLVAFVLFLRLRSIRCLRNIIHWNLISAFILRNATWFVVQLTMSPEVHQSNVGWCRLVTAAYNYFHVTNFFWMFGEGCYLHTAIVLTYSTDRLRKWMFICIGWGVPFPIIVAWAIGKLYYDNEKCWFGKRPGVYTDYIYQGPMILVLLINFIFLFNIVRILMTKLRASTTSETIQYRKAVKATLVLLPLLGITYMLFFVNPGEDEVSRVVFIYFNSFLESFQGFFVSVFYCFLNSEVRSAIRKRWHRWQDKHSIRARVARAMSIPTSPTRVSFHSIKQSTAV
# Procedure: The binding capacities of the compounds of the invention for CRF1 receptor (CRFR1) were evaluated.
# The membrane fraction of human CRFR1 high-expressing cells was used as the material for a CRFR1 binding experiment. The CRFR1-expressing cells were prepared in the following manner. The full-length CRFR1 gene was obtained by PCR using human brain cDNA library (QuickClone™ Clontech). The obtained DNA fragment was inserted into a cloning vector and the nucleotide sequence was confirmed. cDNA having the proper nucleotide sequence was linked to an expression vector (pcDNA3.1™, Invitrogen). The CRFR1 expression vector was introduced into HEK293 cell, and the resistant cells which proliferated in culture medium containing G418 (1 mg/ml) were cloned by the limiting dilution method. Out of the cloned cells, cells having high binding affinity between the membrane fraction per unit of protein and sauvagine were selected according to the following binding experiment. And the selected cells were used for the experiments.
# The cloned cells obtained in (1) were collected and suspended in ice-cooled membrane buffer (50 mM Tris-HCl, 5 mM MgCl2, 2 mM EGTA, 1 mM DTT, protease inhibitor cocktail (COMPLETE™, Roche Diagnostics) pH 7.3), and then the cells were disrupted with a Polytron ([…]) while cooling on ice (level 5, 10 seconds, 2-5 times, ice-cooling) and then centrifuged (2,000 rpm, 5 minutes, 4° C.), after which the supernatant was collected. Membrane buffer was added to the precipitate, and the mixture was subjected to Polytron treatment (same conditions as above) and centrifuged (same conditions as above), and the obtained supernatant was collected and combined with the previous supernatant. This was centrifuged (13,000 rpm (18,000×g), 30 minutes, 4° C.) to prepare cell membranes. The precipitated cell membranes were suspended in membrane buffer and disrupted with a Polytron (level 5, 10 seconds, 3-5 times, ice-cooling) to prepare a dispersed suspension. The protein assay was performed.
# The following method (1) or (2) was performed for use as the cell membrane fraction.
# (1) The above dispersed suspension was diluted with membrane buffer containing 0.1% BSA to a protein concentration of 200 μg/ml, for use as the cell membrane fraction
# (2) The above dispersed suspension was frozen for preservation, and if needed, thawed, re-dispersed and diluted for used as the cell membrane fraction.
# A binding competition experiment with CRF was conducted by the SPA (GE Healthcare) method using a 96-well plate. A mixture of 5 μg of the cell membrane fraction protein, 1 mg of SPA beads and 100 pM ^125I-CRF (Perkin Elmer) was allowed to stand at room temperature for at least 2 hours in the presence of a test compound, and the radioactivity of each well after centrifugation (1,200 rpm (260×g), 5 minutes, room temperature) was measured with a TopCount (registered trademark; Perkin Elmer).
# The radioactivity with addition of a 4,000-fold excess of non-radioactive sauvagine as the nonspecific binding was subtracted from each value, and the resulting value was expressed as a percentage (% of control), with 100% as the radioactivity without addition of the test compound (control). The IC50 value was calculated from a binding inhibition curve drawn with test compound concentration on the horizontal axis and % (% of control) on the vertical axis.
IC50 [2] [µM],Structure (SMILES),anxiolytic effect in the light/dark box test [1],minimal effective dose [1] [mg/kg]
0.065,"CCOCc1cc(OC)c(-c2csc3c(N(CCC4CC4)C4CCOCC4)c(OC)nn23)c(OC)c1 [Example 3, N-(2-Cyclopropylethyl)-3-[4-(ethoxymethyl)-2,6-dimethoxyphenyl]-6-methoxy-N-(tetrahydro-2H-pyran-4-yl)pyrazolo[5,1-b][1,3]thiazole-7-amine]",statistically significant effects,30
0.034,"CCOCc1cc(OC)c(-c2csc3c(N(CC4CCC4)C4CCOCC4)c(OC)nn23)c(OC)c1 [Example 4, N-(Cyclobutylmethyl)-3-[4-(ethoxymethyl)-2,6-dimethoxyphenyl]-6-methoxy-N-(tetrahydro-2H-pyran-4-yl)pyrazolo[5,1-b][1,3]thiazole-7-amine]",statistically significant effects,30
0.046,"COCc1cc(OC)c(-c2csc3c(N(CC4CCC4)C4CCOCC4)c(OC)nn23)c(OC)c1 [Example 7, N-(Cyclobutylmethyl)-3-[2,6-dimethoxy-4-(methoxymethyl)phenyl]-6-methoxy-N-(tetrahydro-2H-pyran-4-yl)pyrazolo[5,1-b][1,3]thiazole-7-amine]",,
0.063,"CCCCCN(c1c(OC)nn2c(-c3c(OC)cc(COC)cc3OC)csc12)C1CCOCC1 [Example 8, 3-[2,6-Dimethoxy-4-(methoxymethyl)phenyl]-6-methoxy-N-pentyl-N-(tetrahydro-2H-pyran-4-yl)pyrazolo[5,1-b][1,3]thiazole-7-amine]",,
0.037,"COCc1cc(OC)c(-c2csc3c(N(CC4CC4)C4CCCOC4)c(OC)nn23)c(OC)c1 (stereo not drawn) [Example 11, N-(Cyclopropylmethyl)-3-[2,6-dimethoxy-4-(methoxymethyl)phenyl]-6-methoxy-N-(tetrahydro-2H-pyran-3-yl)pyrazolo[5,1-b][1,3]thiazole-7-amine]",,
0.082,"COCc1cc(OC)c(-c2csc3c(N(CC4CC4C)C4CCOCC4)c(OC)nn23)c(OC)c1 (stereo not drawn) [Example 12, 3-[2,6-Dimethoxy-4-(methoxymethyl)phenyl]-6-methoxy-N-[(2-methylcyclopropyl)methyl]-N-(tetrahydro-2H-pyran-4-yl)pyrazolo[5,1-b][1,3]thiazole-7-amine]",,
0.036,"CCCN(c1c(OC)nn2c(-c3c(OC)cc(COC4CCC4)cc3OC)csc12)C1CCOCC1 [Example 17, 3-{4-[(Cyclobutyloxy)methyl]-2,6-dimethoxyphenyl}-6-methoxy-N-propyl-N-(tetrahydro-2H-pyran-4-yl)pyrazolo[5,1-b][1,3]thiazole-7-amine]",,

# Further lines, the compound ahead of its results:
Structure (SMILES),IC50 [2] [µM],anxiolytic effect in the light/dark box test [1],minimal effective dose [1] [mg/kg]
"CCCCN(c1c(OC)nn2c(-c3c(OC)cc(COC)cc3OC)csc12)C1CCOCC1 [Example 1, N-Butyl-3-[2,6-dimethoxy-4-(methoxymethyl)phenyl]-6-methoxy-N-(tetrahydro-2H-pyran-4-yl)pyrazolo[5,1-b][1,3]thiazole-7-amine]",,statistically significant effects,30
"CCCCN(c1c(OC)nn2c(-c3c(OC)cc(COCC)cc3OC)csc12)C1CCOCC1 [Example 2, N-Butyl-3-[4-(ethoxymethyl)-2,6-dimethoxyphenyl]-6-methoxy-N-(tetrahydro-2H-pyran-4-yl)pyrazolo[5,1-b][1,3]thiazole-7-amine]",,statistically significant effects,30
"CCOCc1cc(OC)c(-c2csc3c(N(CC4CC4)C4CCCOC4)c(OC)nn23)c(OC)c1 (stereo not drawn) [Example 5, N-(Cyclopropylmethyl)-3-[4-(ethoxymethyl)-2,6-dimethoxyphenyl]-6-methoxy-N-(tetrahydro-2H-pyran-3-yl)pyrazolo[5,1-b][1,3]thiazole-7-amine]",0.029,statistically significant effects,30
"CCCN(c1c(OC)nn2c(-c3c(OC)cc(COCC)cc3OC)csc12)C1CCCOC1 (stereo not drawn) [Example 6, 3-[4-(Ethoxymethyl)-2,6-dimethoxyphenyl]-6-methoxy-N-propyl-N-(tetrahydro-2H-pyran-3-yl)pyrazolo[5,1-b][1,3]thiazole-7-amine]",0.039,,
"COCc1cc(OC)c(-c2csc3c(N(CC4CC4)C4CCOCC4)c(OC)nn23)c(OC)c1 [Example 9, N-(Cyclopropylmethyl)-3-[2,6-dimethoxy-4-(methoxymethyl)phenyl]-6-methoxy-N-(tetrahydro-2H-pyran-4-yl)pyrazolo[5,1-b][1,3]thiazole-7-amine]",,statistically significant effects,30
"CCCN(c1c(OC)nn2c(-c3c(OC)cc(COC)cc3OC)csc12)C1CCOCC1 [Example 10, 3-[2,6-Dimethoxy-4-(methoxymethyl)phenyl]-6-methoxy-N-propyl-N-(tetrahydro-2H-pyran-4-yl)pyrazolo[5,1-b][1,3]thiazole-7-amine]",,statistically significant effects,30
"CCCN(c1c(OC)nn2c(-c3c(Cl)cc(COC)cc3OC)csc12)C1CCOCC1 [Example 13, 3-[2-Chloro-6-methoxy-4-(methoxymethyl)phenyl]-6-methoxy-N-propyl-N-(tetrahydro-2H-pyran-4-yl)pyrazolo[5,1-b][1,3]thiazole-7-amine]",,statistically significant effects,30
"COc1cc(C#N)cc(OC)c1-c1csc2c(N(CC3CCOCC3)CC3CC3)c(OC)nn12 [Example 15, 4-{7-[(Cyclopropylmethyl)(tetrahydro-2H-pyran-4-ylmethyl)amino]-6-methoxypyrazolo[5,1-b][1,3]thiazol-3-yl}-3,5-dimethoxybenzonitrile]",0.07,,
"COc1cc(OC)c(-c2csc3c(N(CC4CCOCC4)CC4CC4)c(OC)nn23)c(OC)c1 [Example 16, N-(Cyclopropylmethyl)-6-methoxy-N-(tetrahydro-2H-pyran-4-ylmethyl)-3-(2,4,6-trimethoxyphenyl)-pyrazolo[5,1-b][1,3]thiazole-7-amine]",0.029,,

# — patent publication US8431603B2, “3-phenylpyrazolo[5,1-b]thiazole compounds” (Eisai R&D Management Co., Ltd., priority 2008, dated 2013)
